From patent US20250108029A1, “INHIBITORS OF THE INTERACTION BETWEEN THE ROCK AND PDK1 PROTEIN KINASES” (Université Paris Cite, priority 2021, published 2025)
Like-named read-outs stand apart in the source and are kept apart here.

What was measured:
B lymphocytes = experiment: B lymphocyte activation (CD69) by flow cytometry after TLR9 stimulation; type: cell-based, human; conditions: 20 μM, 1 h before TLR9 agonist CpG-A, 16 h
Description: The B lymphocytes were purified by negative selection with the “B Cell Isolation Kit” (Miltenyi).
The B lymphocytes were cultured at 1×10^6/ml. […] They were stimulated for 16 h (flow cytometry) with the TLR9 agonist CpG-A at […]. The cells were recovered for flow cytometry.
After washing, the cells were resuspended in PBS containing 2% of FCS and 2 mM of EDTA and then labeled with an anti-CD69 antibody (clone REA824) from Miltenyi Biotec, used at 1/100° for 30 min at 4° C. The cells were washed twice and then passed into flow cytometry. The data acquisition was carried out on the Canto II flow cytometer using Diva software (BD Biosciences, San Jose, CA). FlowJo software was used to analyze the data.

IRFs = experiment: Interferon pathway (IRF) activity in reporter cells fed supernatants of R848-stimulated PBMCs; type: cell-based, human; conditions: for IC50: Homo sapiens, PBMC, read-out: IC50 IFR; for secretion of interferons on PBMCs: preventively, 1 h before stimulation by TLR7/8
Source text: (§1) The supernatants were collected for cytokine detection.

[1] = test system: peripheral blood mononuclear cells (PBMCs); experiment: Interferon secretion by PBMCs stimulated with HIV (THP1-Dual reporter); type: cell-based, human; conditions: 20 μM, 1 h before stimulation by the HIV virus, 24 h
Source text: as §1

IRF transcription factor = experiment: IRF activation in THP1-Dual cells after cGAMP (luciferase assay); type: cell-based, human; conditions: according to a dose effect; stimulation of the STING interferon pathway by cGAMP, 24 h
Description: The THP1-Dual reporter cell line was cultured at 5×10^5/ml. […] The THP1-Dual cells were stimulated for 24 h with the STING pathway agonist, cGAMP. Luciferase assay (luminometry)
The THP1-Dual cells express the Lucia luciferase reporter gene under a promoter containing five IFN response elements. The THP1-Dual cells allow the IRF pathway to be studied by measuring Lucia luciferase activity. Lucia luciferase activity is determined by means of the QUANTI-Luc Gold assay (InvivoGen). The THP1-Dual cells are cultured in a 96-well plate (200 μL/well). After LPS or R848 treatment, for each well, 10 μL of culture medium are added to 50 μL of QUANTI-Luc GOLD solution and the light signal produced is measured by means of a luminometer.

[2] = test system: peripheral blood mononuclear cells (PBMCs); experiment: Interferon secretion by PBMCs stimulated with influenza virus (THP1-Dual reporter); type: cell-based, human; conditions: 20 μM, 1 h before stimulation by the influenza virus, 24 h
[3] = test system: NF-κB transcription factor; experiment: NF-κB activation in THP1-Dual cells (SEAP assay); type: cell-based, human; conditions: according to a dose effect
Description: The THP1-Dual reporter cell line was cultured at 5×10^5/ml.
The THP1-Dual cells express the secreted embryonic alkaline phosphatase (SEAP) reporter gene under a promoter containing five copies of the NF-κB consensus transcriptional response element. The THP1-Dual cells allow the NF-κB pathway to be studied by monitoring the SEAP activity. The SEAP alkaline phosphatase activity is determined by means of the QUANTI-Blue colorimetric enzyme assay (InvivoGen). The THP1-Dual cells are cultured in a 96-well plate (200 μL/well). After LPS or R848 treatment, for each well, 20 μL of culture medium are added to 180 μL of the QUANTI-Blue solution and incubated at 37° C. for 2 h. Absorbance (measurement at 655 nm with a spectrophotometer (Bio-Rad Model 680 microplate reader) is proportional to SEAP activity.

monocytes [4] = experiment: Intracellular TNFα production in isolated monocytes by flow cytometry; type: cell-based, human
[5] = test system: peripheral blood mononuclear cells (PBMCs); experiment: LegendPlex assay of cytokines in supernatants of stimulated PBMCs; conditions: for secretion of TNFα, IL-1β, IL-6, IL-18, IL-23, IFNγ and MCP1 on PBMCs: stimulation by TLR4 (LPS 100 ng/ml, 24 h); for secretion of TNFα, IL-1β, IL-6, IL-10, IL-12 p70, IL-18, IL-23, IL-33, IFNα2, IFNγ and MCP1 on PBMCs: stimulation by TLR7/8 (R848 5 μg/ml, 24 h)
Description: The in vitro experiments were carried out using human peripheral blood mononuclear cells (PBMCs) isolated by density with centrifugation using a medium for separating white blood cells from peripheral blood ([sequence] Technologies). The blood from the healthy donors was obtained at the “Etablissement Frangais du Sang” (French Blood Establishment) (convention #07/CABANEL/106; Paris, France). […] The peripheral blood mononuclear cells (PBMCs) were cultured in RPMI 1640 (Sigma) containing 10% inactivated fetal calf serum and 1 mM glutamine (Hyclone, Logan, UT).
The PBMCs were cultured at 2×10^6 cells/ml. The cells were then incubated with the compounds of formula (V) and (VI) at the indicated concentrations for 1 hour before stimulation. The PBMCs were then stimulated for 24 h with the TLR7/8 agonist Resiquimod—R848 at 5 μg/ml and the TLR4 agonist Lipopolysaccharide—LPS at 100 ng/ml. The supernatants were collected for cytokine detection.
An assay of the cytokines in the supernatants of the cell cultures was carried out using the “LegendPlex Antivirus Human Panel” or “LegendPlex Human Inflammation Panel” (Biolegend, San Diego, USA) according to the manufacturer's instructions.

monocytes [6] = experiment: TNFα production in monocytes treated with siPDK1 or siCTL and stimulated with R848; type: cell-based, human; conditions: 20 μM, 1 h before R848 1 μg/ml
[7] = test system: NF-κB transcription factor; experiment: NF-κB activity in THP1-Dual reporter cells fed supernatants of R848-stimulated PBMCs; conditions: for IC50: Homo sapiens, THP1-Dual, read-out: IC50 NF-κB; for secretion of inflammatory cytokines on PBMCs: preventively, 1 h before stimulation by TLR7/8
Description: The in vitro experiments were carried out using human peripheral blood mononuclear cells (PBMCs) isolated by density with centrifugation using a medium for separating white blood cells from peripheral blood ([sequence] Technologies). […] The peripheral blood mononuclear cells (PBMCs) were cultured in RPMI 1640 (Sigma) containing 10% inactivated fetal calf serum and 1 mM glutamine (Hyclone, Logan, UT).
The PBMCs were cultured at 2×10^6 cells/ml. The cells were then incubated with the compounds of the invention at the indicated concentrations for 1 h before stimulation. The PBMCs were then stimulated for 24 h with the TLR7/8 agonist Resiquimod (R848) at 5 μg/ml. The supernatants were collected for cytokine detection.
The activity of the NF-κB transcription Factor and the induction of the interferon (IFN) pathway via interferon regulatory factors (IRFs) were measured using the THP1-Dual reporter cell line from InvivoGen. The PBMC culture supernatants were added to the THP1-Dual cultures at a rate of 0.4×10^6 cells/ml for 24 h. The activity of the NF-κB transcription factor was measured with QUANTI-Blue, a SEAP detection agent following the supplier's recommendations. The activity of the IRFs was measured with QUANTI-Luc, a luciferase detection reagent following the supplier's recommendations.

[8] = test system: THP1 human monocytic cell line; experiment: RT-qPCR of pro-inflammatory gene transcription in THP1-Dual monocytes; type: cell-based; conditions: dose effect; for concentration from which transcription of the genes coding for TNFα and IL-1β is reduced: induced by LPS, 1 hour; for concentration from which transcription of the genes coding for TNFα, IL-6, MCP1 and IL-1β is reduced: induced by R848 5 μg/ml, 16 h
Description: The THP1-Dual cell lines were cultured at 1×10^6 cells/ml.
The THP1-Dual cells (InvivoGen) were stimulated for 16 h with the TLR7/8 agonist (R848) at 5 μg/ml or for 1 hour with the TLR4 agonist (LPS) at 100 ng·ml, respectively. The cells were washed in PBS and lysed to prepare the mRNAs for an RT-qPCR analysis.
The total RNAs are extracted from the cells with the E.Z.N.A. kit. Total RNA Kit 1 (Omega Bio-tek) according to the supplier's instructions. The RNA concentration is measured by means of a spectrophotometer (Nanodrop ND-1000). The total RNA is reverse-transcribed into cDNA by means of the PrimeScript RT Master Mix kit (Takara RR036A). The cDNA synthesis is carried out according to the following protocol: 300-500 ng of RNA in 8 μL of water free of RNase, supplemented with 2 μL of the reaction buffer (containing the PrimeScript reverse transcriptase, RNase inhibitors, oligo(dT) primers, random 6mers and the mix of dNTPs). The enzymatic reverse transcription reaction is carried out at 37° C. for 15 min. The enzyme is inactivated by incubating the sample at 85° C. for 15 sec.
The quantitative real-time PCR is carried out according to the following conditions: cDNA diluted to 1/10th is added to the following mixture: 3.8 μL of H2O, […] of sense and antisense primers (10 μM) (Table 3), 5 μL of Absolute qPCR SYBR Green Mix containing Thermo-Start DNA Polymerase, MgCl2, SYBR Green and dNTPs (Eurogentec). The assays are carried out in triplicate in a 384-well plate (Thermo Scientific). DNA amplification by quantitative PCR is carried out in the CFX384 system (Bio-Rad) with the following program: 3 min at 95° C./5 sec at 95° C. and 30 sec at 60° C. repeated 40 cycles/2 min at 72° C. and 30 sec at 95° C. followed by a dissociation step which makes it possible to verify the specificity of the amplification product. The DNA amplification data are analyzed with Bio-Rad CFX Manager software.

[9] = test system: plasmacytoid dendritic cells (pDCs); type: cell-based, human
pyruvate kinase (PK) = experiment: Pyruvate kinase activity assay; type: biochemical
Description: Inhibitors (2 μL) are added to 193 μL of a mixture containing PEP, ADP, MgSO4, β-NADH and L-lactic dehydrogenase. After reading at 340 nm, 7 μL of pyruvate kinase are added to the mixture. The samples are read at 340 nm every 1 to 2 min for 20 min.

[10] = PBMCs incubated with compound 1 h before R848 5 μg/ml for 24 h, supernatants on reporter cells, QUANTI-Luc
[11] = stimulation of TLR4 by LPS, 24 h
[12] = stimulation of TLR7/8 by R848, 24 h
[13] = Condition A: 20 μM, 1 h before stimulation of TLR7/8 (R848 5 μg/ml)
[14] = Condition B: 20 μM, 1 h before stimulation of TLR4 (LPS 100 ng/ml)
[15] = Condition C: 20 μM, 1 h before stimulation of TLR2 (LTA 1 μg/ml)
[16] = Condition B: 20 μM, 1 h before stimulation by the influenza virus

Compound | activation of B lymphocytes (CD69 membrane activation marker) (B lymphocytes) | IC50 (IRFs; [10]) | secretion of interferons on PBMCs (IRFs) | secretion of interferons by PBMCs [1] | activation of the IRF transcription factor in THP1-Dual cells (IRF transcription factor) | secretion of interferons by PBMCs [2] | activation of the NF-κB transcription factor in THP1-Dual cells [3, 11] | activation of the NF-κB transcription factor in THP1-Dual cells [3, 12] | production of TNFα on monocytes (monocytes [4]; [13]) | production of TNFα on monocytes (monocytes [4]; [14]) | production of TNFα on monocytes (monocytes [4]; [15]) | secretion of TNFα, IL-1β, IL-6, IL-18, IL-23, IFNγ and MCP1 on PBMCs [5] | secretion of TNFα, IL-1β, IL-6, IL-10, IL-12 p70, IL-18, IL-23, IL-33, IFNα2, IFNγ and MCP1 on PBMCs [5] | production of TNFα by monocytes treated with control siRNAs (siCTL) (monocytes [6]) | production of TNFα by monocytes treated with siRNAs targeting PDK1 (siPDK1) (monocytes [6]) | IC50 [7] | secretion of inflammatory cytokines on PBMCs [7] | concentration from which transcription of the genes coding for TNFα and IL-1β is reduced [8] | concentration from which transcription of the genes coding for TNFα, IL-6, MCP1 and IL-1β is reduced [8] | production of TNFα on plasmacytoid dendritic cells [9, 16] | other results
COc1cccc(-n2nc3c(N)cc(-c4ccccc4)nc3c2C(=O)NN)c1 [Compound of formula (VIII), 7-amino-2-(3-methoxyphenyl)-5-phenyl-2H-pyrazolo[4,3-b]pyridine-3-carbohydrazide] | capable of blocking | 23 µM | capable of blocking | inhibit | inhibit | inhibit | – | – | – | – | – | – | – | – | – | – | – | – | – | – | –
COC(=O)c1c(NC(=O)C(F)(F)F)c(C#N)nn1-c1cccc(OC)c1 [Compound of formula (IX), methyl 3-cyano-1-(3-methoxyphenyl)-4-(2,2,2-trifluoroacetamido)-1H-pyrazole-5-carboxylate] | – | 0.4 µM | capable of blocking | – | inhibit | inhibit | – | – | – | – | – | – | – | – | – | – | – | – | – | – | –
COc1cccc(-n2nc3c(N)cc(-c4ccccc4)nc3c2C(=O)NCc2ccccc2)c1 [Compound of formula (VII), 7-amino-N-benzyl-2-(3-methoxyphenyl)-5-phenyl-2H-pyrazolo[4,3-b]pyridine-3-carboxamide] | capable of blocking | 23 µM | capable of blocking | – | – | – | – | – | – | – | – | – | – | – | – | – | – | – | – | – | –
COc1cccc(NN=C(C#N)C#N)c1 [Compound of formula (V), 2-[(3-methoxyphenyl)hydrazinylidene]propanedinitrile] | capable of blocking | – | capable of blocking | inhibit | inhibit | inhibit | inhibit | inhibit | inhibit | inhibit | inhibit | capable of blocking | capable of blocking | inhibit | fail to inhibit | 3.8 µM | capable of blocking | ≥ 5 µM | ≥ 5 µM | inhibit | IC50 (IRFs): 3 µM; production of TNFα on plasmacytoid dendritic cells ([9]; Condition A: 20 μM, 1 h before stimulation of TLR7 (R848 5 μg/ml)): inhibit; production of TNFα on plasmacytoid dendritic cells ([9]; Condition C: 20 μM, 1 h before stimulation of TLR9 (CpG-A)): inhibit; enzymatic activity of pyruvate kinase (PK) (pyruvate kinase (PK)): no impact
COc1ccc(NN=C(C#N)C#N)cc1 [Compound of formula (VI), 2-[(4-methoxyphenyl)hydrazinylidene]propanedinitrile] | capable of blocking | 3 µM | capable of blocking | inhibit | inhibit | inhibit | inhibit | inhibit | inhibit | inhibit | inhibit | capable of blocking | capable of blocking | inhibit | fail to inhibit | 5 µM | capable of blocking | ≥ 1 µM | ≥ 2 µM | inhibit | production of TNFα on plasmacytoid dendritic cells [9]: inhibit; enzymatic activity of pyruvate kinase (PK) (pyruvate kinase (PK)): no impact
